Experimental data published in patent publication US20260193250A1, “TOLL-LIKE RECEPTOR 7 AGONISTS AS IMMUNE-STIMULATORS TO ELICIT THE INNATE ANTITUMOR IMMUNITY” (Merck Patent GmbH, priority 2022, published 2026).

Tested on: Peripheral blood mononuclear cells (PBMC)
Experiment: TNFα secretion from PBMCs
Assay type: cell-based
Details: human PBMCs, 18 hours incubation, MILLIPLEX bead panel
Method: Peripheral blood mononuclear cells (PBMC) were isolated from healthy human volunteers and banked in liquid nitrogen. Vial of frozen PBMC was thawed in 37° C. water bath for no more than 2 minutes. The contents of the tube were aseptically transferred to pre-warmed complete media containing RPMI basal media (Gibco-21875034) supplemented with 10% HI-FBS (Aus origin) (Gibco-10100-147) and 1% penicillin/streptomycin (Gibco-15140-122-100 ml) followed by centrifugation. Cells were resuspended in complete media (3 ml) and counted using haemocytometer.
All selected compounds (Five benchmark and 15 example molecules) were prepared in 100% DMSO (Sigma-D2650) (10 mM stock). The compounds were serially diluted in 100% DMSO (4 fold) up to 8 point DRC in U-bottom 96 well plate (Cellstar-650180). 3 μl of this serially diluted DRC was mixed with 97 μl of completed media (1:33.33) as intermediate dilution (300 μM) 3% DMSO. 11 μl of compounds from intermediate dilution was added to the PBMC plate (1:10) such that final concentration of DMSO in the culture plate is 0.3% and starting concentration of the compounds is 30 μM. Resiquimod (30 μM) and DMSO (0.3%) were used as positive and negative controls respectively.
The plate was incubated at 37° C. with 5% CO2 for 18 hours. Post incubation, the plate was spun at 2000 rpm for 5 min and supernatant was gently aspired and collected in protein low binding V-bottom 96 well plates (Thermo Fisher-249944). The supernatant plates were sealed, labelled appropriately and stored at −80° C. till cytokine analysis (<1 month).
MILLIPLEX MAP Human Cytokine/Chemokine Magnetic Bead Panel kit (HCYTOMAG-60K) was used for measuring TNF alpha as per the kit's recommendation.
EC50 were determined using Graph Pad Prism Statistical software (Version 7.05), with individual data points represent the absorbance values of duplicates.

Question: Which EC50 does the source give for `CCOCc1nc2c(N)nc3ccccc3c2n1CC(C)(C)OCCCCn1cc(CO)nn1` [Example 13] here?
Answer: 0.1 to 1 µM

Question: With `CCOCc1nc2c(N)nc3ccccc3c2n1CC(C)(C)OCCCCn1cc(CN)nn1` [Example 14] as the compound, how does the EC50 read?
Answer: 0.1 to 1 µM

Question: `CCOCc1nc2c(N)nc3ccccc3c2n1CC(C)(C)OCCCCCN1CCN(C)CC1` [Example 4] was tested. Which EC50 did it give?
Answer: < 0.1 µM

Question: How did the EC50 turn out when `CCOCc1nc2c(N)nc3ccccc3c2n1CC(C)(C)OCCCCN1CCNCC1` [Example 10] was run?
Answer: 0.1 to 1 µM

Question: Which EC50 does the source give for `CCOCc1nc2c(N)nc3ccccc3c2n1CC(C)(C)OCCCN1CCN(C)CC1` [Example 2] here?
Answer: 0.1 to 1 µM

Question: How did the EC50 turn out when `CCOCc1nc2c(N)nc3ccccc3c2n1CC(C)(C)OCCCCN1CCCC1` [Example 9] was run?
Answer: > 10 µM

Question: With `CCNCc1nc2c(N)nc3ccccc3c2n1CC(C)(C)OCCCCN1CCN(C)CC1` [Example 18] as the compound, how does the EC50 read?
Answer: 1 to 10 µM

Question: How did the EC50 turn out when `CCOCc1nc2c(N)nc3ccccc3c2n1CC(C)(C)OC(=O)CN` [Example 19] was run?
Answer: < 0.1 µM

Question: For `CCOCc1nc2c(N)nc3ccccc3c2n1CC(C)(C)OCCCCN1CCOCC1` [Example 7], which EC50 is on record?
Answer: 0.1 to 1 µM

Question: How did the EC50 turn out when `CCOCc1nc2c(N)nc3ccccc3c2n1CC(C)(C)OCCCCN1CCN(CCN)CC1` [Example 11] was run?
Answer: 1 to 10 µM

Question: How did the EC50 turn out when `CCOCc1nc2c(N)nc3ccccc3c2n1CC(C)(C)OCCCCN1CCCCC1` [Example 8] was run?
Answer: 1 to 10 µM

Question: For `CCOCc1nc2c(N)nc3ccccc3c2n1CC(C)(C)OCCCCN1CCN(C)CC1` [Example 3], which EC50 is on record?
Answer: < 0.1 µM

Question: Which EC50 does the source give for `CCOCc1nc2c(N)nc3ccccc3c2n1CC(C)(C)OCCCCN1CCN(CC(C)(C)SC)CC1` [Example 27] here?
Answer: 1 to 10 µM
